Source: PubChem BioAssay AID1259346
The source made the active and inactive calls.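 Rule for the calls: active = IC50 below 1 nM; inactive = the rest.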

test system: HCT116 TERT promoter luciferase reporter, 16 h; test: modulation of TERT promoter-driven luciferase – HCT116 cells, human, dose response (AID 1259346)

IC50 | Compound
< 1 nM | Cc1nc2cc(-c3ccc(Br)cc3)nn2c(C)c1CCC(=O)O
< 1 nM | COC(=O)CCc1c(C)nc2cc(-c3ccc(OC)cc3)nn2c1C
3600 nM (inactive) | Cc1nc2cc(-c3ccc(C#CCO)cc3)nn2c(C)c1CCC(=O)O
7 nM (inactive) | Cc1nc2cc(-c3ccccc3)nn2c(C)c1CCC(=O)O
346 nM (inactive) | Cc1nc2cc(-c3cccc(Br)c3)nn2c(C)c1CCC(=O)O
